For this experiment, the target named is Angiotensin-converting enzyme (Homo sapiens, UniProt P12821). The experiment in a line: Concentration required for 50% inhibition of Angiotensin I converting enzyme. The experiment is classed as protein assay, Cavia porcellus.

The structures appear in SMILES notation.

Sequence of Angiotensin-converting enzyme (P12821 whole entry): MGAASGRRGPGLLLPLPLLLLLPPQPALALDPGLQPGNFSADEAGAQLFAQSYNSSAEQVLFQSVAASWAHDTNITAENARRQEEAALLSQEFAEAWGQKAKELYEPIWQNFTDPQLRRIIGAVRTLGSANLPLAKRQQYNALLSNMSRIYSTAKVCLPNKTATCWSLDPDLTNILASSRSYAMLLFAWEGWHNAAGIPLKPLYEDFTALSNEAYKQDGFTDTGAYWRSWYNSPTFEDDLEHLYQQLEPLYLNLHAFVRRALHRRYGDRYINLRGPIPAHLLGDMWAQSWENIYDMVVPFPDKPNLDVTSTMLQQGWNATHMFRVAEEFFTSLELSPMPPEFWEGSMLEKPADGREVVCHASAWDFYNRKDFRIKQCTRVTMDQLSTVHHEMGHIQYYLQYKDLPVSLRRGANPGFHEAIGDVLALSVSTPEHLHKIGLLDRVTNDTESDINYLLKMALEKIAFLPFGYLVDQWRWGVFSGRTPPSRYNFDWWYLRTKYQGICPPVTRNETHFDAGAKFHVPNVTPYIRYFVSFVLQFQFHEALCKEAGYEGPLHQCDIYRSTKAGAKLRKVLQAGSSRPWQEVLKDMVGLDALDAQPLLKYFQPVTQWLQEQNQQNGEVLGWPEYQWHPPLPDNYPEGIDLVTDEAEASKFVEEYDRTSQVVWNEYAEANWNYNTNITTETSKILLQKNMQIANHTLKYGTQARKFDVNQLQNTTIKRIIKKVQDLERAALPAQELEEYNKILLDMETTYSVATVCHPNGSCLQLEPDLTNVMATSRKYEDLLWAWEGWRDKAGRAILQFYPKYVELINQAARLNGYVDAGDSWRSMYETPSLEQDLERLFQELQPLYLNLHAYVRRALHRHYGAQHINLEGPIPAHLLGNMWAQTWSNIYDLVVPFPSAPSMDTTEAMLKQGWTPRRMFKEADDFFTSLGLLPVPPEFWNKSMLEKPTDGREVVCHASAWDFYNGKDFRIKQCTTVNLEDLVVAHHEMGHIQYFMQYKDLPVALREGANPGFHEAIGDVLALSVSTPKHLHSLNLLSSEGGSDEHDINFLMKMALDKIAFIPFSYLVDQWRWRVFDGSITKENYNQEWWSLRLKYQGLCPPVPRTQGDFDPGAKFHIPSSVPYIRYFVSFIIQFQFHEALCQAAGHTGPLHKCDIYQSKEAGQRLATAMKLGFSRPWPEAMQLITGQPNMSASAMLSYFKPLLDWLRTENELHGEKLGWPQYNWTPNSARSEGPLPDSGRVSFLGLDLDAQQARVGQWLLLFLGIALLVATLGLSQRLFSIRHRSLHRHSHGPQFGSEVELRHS

For `CC(=O)SCC1CCCN(CC(N)=O)C1=O` (stereo unspecified), the IC50 result was “Not Active”.

For the origin of these results see ChEMBL document CHEMBL1121705, “Synthesis and angiotensin-converting enzyme inhibitory activity of 3-(Mercaptomethyl)-2-oxo-1-pyrrolidineacetic acids and 3-(Mercaptomethyl)-2-oxo-1-piperidineacetic acids” (J Med Chem, 1981).
